{
  "source": "patent US6914052B2",
  "about": "“Selective anti-viral nucleoside chain terminators” (The Trustees of Boston College, priority 2001, dated 2005)",
  "type_in_all_cases": "biochemical",
  "conditions_in_all_cases": "single triphosphate offered to enzyme/primer/template complex, template dG; 37° C. for 45 min; denaturing PAGE",
  "key": {"[1]": {"target": "HIV reverse transcriptase (Human immunodeficiency virus type 1 group M subtype B, UniProt P04585)", "assay": "Primer extension / chain termination with HIV reverse transcriptase", "source_text": "(§1) The nucleoside incorporation experiment for one of the modified nucleotide analog compounds of the present invention is illustrated in FIGS. 12 and 13. […] The first nucleoside added to the primer should be a C residue (coded by the G residue of the template). A single triphosphate of dC or the above analog is offered to the enzyme/primer/template complex. […] In the remaining lanes of the gel, experiments have been designed with only the analog dd2ApyTP present with the primer template complex.\n(§2) The following buffers were used for each polymerase: DNA polmerase α, 50 mM Tris.HCl pH 8.0, 5 mM Mg(AcO)2, 1 mM DTT, 1 mM spermidine; DNA pol β 50 mM Tris.HCl pH 8.0, 10 mM MgCl2, 1 mM DTT; DNA Polymerase γ 50 mM Tris.HCl pH 7.5, 100 mM NaCl, 2.5 MM MgCl2; HIV RT 50 mM Tris.HCl pH 8.5, 10 mM MgCl2, 40 mM KCl, 1 mM DTT. Template, primer and the corresponding buffer were mixed and heated to 100° C. for 1 min, allowed to cool to room temperature then placed on ice for 30 min. Once the template and primer had been allowed to anneal the polymerase was added. The appropriate amount of template-primer mixture was added to a vial containing water and the NTP(s) at the desired concentration. Typical reaction volumes were 10 μL. The reactions were incubated at 37° C. for 45 min. […] Primer extensions were analyzed by standard methods by denaturing Polyacrylamide Gel Electrophoresis (PAGE). […]"}, "[2]": {"target": "human polymerase β (Homo sapiens, UniProt P06746)", "assay": "Primer extension / chain termination with human polymerase β", "source_text": "as §1, §2"}, "[3]": {"target": "T1, human polymerase α (Homo sapiens, UniProt P09884)", "T1 sequence (P09884 1-1462)": "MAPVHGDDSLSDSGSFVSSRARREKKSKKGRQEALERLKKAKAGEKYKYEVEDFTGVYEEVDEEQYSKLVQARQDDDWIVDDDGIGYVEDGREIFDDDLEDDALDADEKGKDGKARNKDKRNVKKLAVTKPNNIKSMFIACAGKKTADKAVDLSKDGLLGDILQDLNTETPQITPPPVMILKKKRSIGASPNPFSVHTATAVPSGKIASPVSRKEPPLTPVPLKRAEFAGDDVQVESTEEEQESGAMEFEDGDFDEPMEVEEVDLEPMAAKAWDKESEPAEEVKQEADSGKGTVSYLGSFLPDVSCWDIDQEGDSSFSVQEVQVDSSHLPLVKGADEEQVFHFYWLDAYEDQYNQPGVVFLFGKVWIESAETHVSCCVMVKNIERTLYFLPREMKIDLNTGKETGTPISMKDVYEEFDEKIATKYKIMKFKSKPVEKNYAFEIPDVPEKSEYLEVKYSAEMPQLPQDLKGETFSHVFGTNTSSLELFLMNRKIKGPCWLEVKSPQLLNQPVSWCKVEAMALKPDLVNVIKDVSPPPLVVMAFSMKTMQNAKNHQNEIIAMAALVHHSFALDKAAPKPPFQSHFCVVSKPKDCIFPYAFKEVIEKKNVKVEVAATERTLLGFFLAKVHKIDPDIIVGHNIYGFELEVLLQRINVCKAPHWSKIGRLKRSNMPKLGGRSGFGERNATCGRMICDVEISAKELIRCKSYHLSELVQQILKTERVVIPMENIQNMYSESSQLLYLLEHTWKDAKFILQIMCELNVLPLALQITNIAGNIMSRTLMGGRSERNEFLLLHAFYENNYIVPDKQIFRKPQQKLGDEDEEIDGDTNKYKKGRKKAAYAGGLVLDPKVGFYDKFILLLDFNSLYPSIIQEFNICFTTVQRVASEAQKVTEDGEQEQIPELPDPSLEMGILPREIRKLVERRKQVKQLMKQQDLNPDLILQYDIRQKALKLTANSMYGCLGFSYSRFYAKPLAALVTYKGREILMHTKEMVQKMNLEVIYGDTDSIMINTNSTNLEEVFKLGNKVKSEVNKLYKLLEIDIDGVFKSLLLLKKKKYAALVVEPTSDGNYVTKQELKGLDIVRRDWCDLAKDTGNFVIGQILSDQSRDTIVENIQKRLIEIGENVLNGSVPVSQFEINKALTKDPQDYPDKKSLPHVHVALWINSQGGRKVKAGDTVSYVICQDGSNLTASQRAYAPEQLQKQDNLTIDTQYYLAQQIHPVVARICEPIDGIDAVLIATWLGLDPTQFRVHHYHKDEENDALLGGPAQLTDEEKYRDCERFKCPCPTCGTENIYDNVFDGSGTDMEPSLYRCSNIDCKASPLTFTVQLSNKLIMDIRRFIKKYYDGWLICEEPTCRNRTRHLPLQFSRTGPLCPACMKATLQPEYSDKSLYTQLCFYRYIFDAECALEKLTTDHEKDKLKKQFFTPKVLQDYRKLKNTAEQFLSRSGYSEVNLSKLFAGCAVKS", "assay": "Primer extension / chain termination with human polymerase α", "description": "(§3) FIG. 13 illustrates the results for polymerases α and γ.\n(§4) The following buffers were used for each polymerase: DNA polmerase α, 50 mM Tris.HCl pH 8.0, 5 mM Mg(AcO)2, 1 mM DTT, 1 mM spermidine; DNA pol β 50 mM Tris.HCl pH 8.0, 10 mM MgCl2, 1 mM DTT; DNA Polymerase γ 50 mM Tris.HCl pH 7.5, 100 mM NaCl, 2.5 MM MgCl2; HIV RT 50 mM Tris.HCl pH 8.5, 10 mM MgCl2, 40 mM KCl, 1 mM DTT. Template, primer and the corresponding buffer were mixed and heated to 100° C. for 1 min, allowed to cool to room temperature then placed on ice for 30 min. Once the template and primer had been allowed to anneal the polymerase was added. The appropriate amount of template-primer mixture was added to a vial containing water and the NTP(s) at the desired concentration. Typical reaction volumes were 10 μL. The reactions were incubated at 37° C. for 45 min. The reactions were quenched using Na-EDTA, heated at 100° C. for 1 min, and then flash frozen in liquid N2. Primer extensions were analyzed by standard methods by denaturing Polyacrylamide Gel Electrophoresis (PAGE).\n(§5) Analytical polyacrylamide gel electrophoresis was performed using a 38×50 cm Sequi-Gen GT sequencing cell with a thickness of 0.4 mm and 15% monomer (acrylamide:bisacrylamide 19:1). Gels were run using 90 mM Tris-Borate 1 mM EDTA buffer (pH 8.3). Gels were imaged on Phosphorimager: 425 from Molecular Dynamics (Sunnyvale, Calif.)."}, "[4]": {"target": "T2, human polymerase γ (Homo sapiens, UniProt P54098)", "T2 sequence (P54098 1-1239)": "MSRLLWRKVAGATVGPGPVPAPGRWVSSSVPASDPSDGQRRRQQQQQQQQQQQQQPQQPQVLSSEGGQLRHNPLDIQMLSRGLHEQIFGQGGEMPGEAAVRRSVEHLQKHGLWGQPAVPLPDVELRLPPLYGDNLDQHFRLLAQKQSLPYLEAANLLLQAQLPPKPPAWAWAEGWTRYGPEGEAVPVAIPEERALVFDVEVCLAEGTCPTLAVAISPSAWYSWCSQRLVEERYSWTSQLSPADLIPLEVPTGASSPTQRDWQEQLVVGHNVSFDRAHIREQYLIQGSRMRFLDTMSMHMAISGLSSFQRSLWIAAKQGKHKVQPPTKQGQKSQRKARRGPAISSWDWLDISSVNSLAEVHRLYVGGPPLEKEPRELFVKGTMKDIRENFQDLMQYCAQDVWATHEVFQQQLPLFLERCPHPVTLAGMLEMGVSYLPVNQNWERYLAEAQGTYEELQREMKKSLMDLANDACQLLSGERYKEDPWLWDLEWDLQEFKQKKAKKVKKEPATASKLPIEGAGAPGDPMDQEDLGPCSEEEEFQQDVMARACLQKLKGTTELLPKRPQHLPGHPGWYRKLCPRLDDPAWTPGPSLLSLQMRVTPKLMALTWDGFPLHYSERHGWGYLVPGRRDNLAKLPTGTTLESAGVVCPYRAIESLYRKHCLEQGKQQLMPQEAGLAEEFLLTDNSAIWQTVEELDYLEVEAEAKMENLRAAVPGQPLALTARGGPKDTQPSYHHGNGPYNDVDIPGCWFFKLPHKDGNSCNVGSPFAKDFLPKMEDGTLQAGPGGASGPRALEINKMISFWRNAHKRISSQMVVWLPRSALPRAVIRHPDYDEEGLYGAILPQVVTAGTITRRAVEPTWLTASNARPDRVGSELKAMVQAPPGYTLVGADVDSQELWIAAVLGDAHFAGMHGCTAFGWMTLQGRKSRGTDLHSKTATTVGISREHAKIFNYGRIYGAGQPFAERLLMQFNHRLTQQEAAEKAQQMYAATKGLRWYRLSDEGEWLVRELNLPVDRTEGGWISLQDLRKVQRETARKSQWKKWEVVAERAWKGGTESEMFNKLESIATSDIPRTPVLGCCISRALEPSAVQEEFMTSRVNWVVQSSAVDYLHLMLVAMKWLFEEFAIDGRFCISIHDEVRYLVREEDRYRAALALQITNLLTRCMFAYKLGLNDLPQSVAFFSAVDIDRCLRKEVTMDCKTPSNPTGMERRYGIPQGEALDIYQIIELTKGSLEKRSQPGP", "assay": "Primer extension / chain termination with human polymerase γ", "description": "as §3, §4, §5"}},
  "data": [
    {"compound": "Nc1ccn([C@H]2C[C@H](O)[C@@H](COP(=O)(O)OP(=O)(O)OP(=O)(O)O)O2)c(=O)n1", "note": "[dCTP]", "values": [
      {"measurement": "incorporation of the triphosphate into the primer (primer extension, gel, FIG. 12 left)", "setting": "[1]", "result": "two additions of the nucleoside"},
      {"measurement": "incorporation of the triphosphate into the primer (primer extension, gel, FIG. 12 right)", "setting": "[2]", "result": "incorporated by human polymerase β in the normal fashion"},
      {"measurement": "incorporation of the triphosphate into the primer (primer extension, gel, FIG. 13 left)", "setting": "[3]", "result": "normal incorporation into the primer"},
      {"measurement": "incorporation of the triphosphate into the primer (primer extension, gel, FIG. 13 right)", "setting": "[4]", "result": "normal incorporation into the primer"}
    ]}
  ]
}
